Laboratory results reported in ChEMBL document CHEMBL1201862, “PubChem BioAssay data set” (2004).
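Cells were grown in 96-well plates and exposed to each compound for 48 hours at five concentrations; endpoints were interpolated linearly between bracketing concentrations, or set to the highest concentration if not reached. Here, GI50 denotes the concentration required for 50% inhibition of growth.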 Active and inactive are the calls of the source. Rule as the data show it: active = GI50 up to about 1.1 µM and inactive = higher.

What was measured:
Assay in all cases: inhibition of tumour cell growth, NCI panel, 48 h
HOP-92 = system: HOP-92
DU-145 = system: DU-145
TK-10 = system: TK-10
M14 = system: M14
NCI-H226 = system: NCI-H226
U-251 = system: U-251
CCRF-CEM = system: CCRF-CEM
NCI-H522 = system: NCI-H522
MDA-MB-435 = system: MDA-MB-435
UACC-62 = system: UACC-62
HL-60 = system: HL-60
SK-MEL-28 = system: SK-MEL-28
OVCAR-5 = system: OVCAR-5
OVCAR-8 = system: OVCAR-8
OVCAR-4 = system: OVCAR-4
786-0 = system: 786-0
MOLT-4 = system: MOLT-4
A498 = system: A498
A549 = system: A549
SF-295 = system: SF-295

| SMILES | GI50 (HOP-92) | GI50 (DU-145) | GI50 (TK-10) | GI50 (M14) | GI50 (NCI-H226) | GI50 (U-251) | GI50 (CCRF-CEM) | GI50 (NCI-H522) | GI50 (MDA-MB-435) | GI50 (UACC-62) | GI50 (HL-60) | GI50 (SK-MEL-28) | GI50 (OVCAR-5) | GI50 (OVCAR-8) | GI50 (OVCAR-4) | GI50 (786-0) | GI50 (MOLT-4) | GI50 (A498) | GI50 (A549) | GI50 (SF-295) |
| --- | --- | --- | --- | --- | --- | --- | --- | --- | --- | --- | --- | --- | --- | --- | --- | --- | --- | --- | --- | --- |
| O=[N+]([O-])c1ccc(S(=O)(=O)Cc2ccccc2)c2nonc12 | 19.9 µM (inactive) | 18.7 µM (inactive) | 18.1 µM (inactive) | 16.4 µM (inactive) | > 100 µM (inactive) | 18.2 µM (inactive) | 9.06 µM (inactive) | 18.8 µM (inactive) | 19.2 µM (inactive) | 17.8 µM (inactive) | 18.3 µM (inactive) | 20.5 µM (inactive) | 58.2 µM (inactive) | 22.1 µM (inactive) | 17.3 µM (inactive) | 19.6 µM (inactive) | 18.7 µM (inactive) | > 100 µM (inactive) | 29.4 µM (inactive) | > 100 µM (inactive) |
| CC(=O)NC(Cc1ccccc1)NC(=O)O (stereo not given) | > 100 µM (inactive) | > 100 µM (inactive) | > 100 µM (inactive) | > 100 µM (inactive) | > 100 µM (inactive) | > 100 µM (inactive) | > 100 µM (inactive) | > 100 µM (inactive) | > 100 µM (inactive) | > 100 µM (inactive) | > 100 µM (inactive) | > 100 µM (inactive) | > 100 µM (inactive) | > 100 µM (inactive) | > 100 µM (inactive) | > 100 µM (inactive) | > 100 µM (inactive) | > 100 µM (inactive) | > 100 µM (inactive) | > 100 µM (inactive) |
| CCOC(=O)CN1C(=O)c2c(NC(=O)C(=O)O)cccc2S1(=O)=O | > 100 µM (inactive) | > 100 µM (inactive) | > 100 µM (inactive) | > 100 µM (inactive) | > 100 µM (inactive) | > 100 µM (inactive) | > 100 µM (inactive) | > 100 µM (inactive) | > 100 µM (inactive) | > 100 µM (inactive) | > 100 µM (inactive) | > 100 µM (inactive) | > 100 µM (inactive) | > 100 µM (inactive) | > 100 µM (inactive) | > 100 µM (inactive) | > 100 µM (inactive) | > 100 µM (inactive) | > 100 µM (inactive) | > 100 µM (inactive) |
| COC1(OC)C2C=CC1C([C@](C)(N)CO)C2 (stereo not given in full) | > 100 µM (inactive) | > 100 µM (inactive) | > 100 µM (inactive) | > 100 µM (inactive) | > 100 µM (inactive) | > 100 µM (inactive) | > 100 µM (inactive) | > 100 µM (inactive) | > 100 µM (inactive) | > 100 µM (inactive) | > 100 µM (inactive) | > 100 µM (inactive) | > 100 µM (inactive) | > 100 µM (inactive) | > 100 µM (inactive) | > 100 µM (inactive) | > 100 µM (inactive) | > 100 µM (inactive) | > 100 µM (inactive) | > 100 µM (inactive) |
| O=S(=O)(O)c1ccc(Nc2ccnc3cc(Cl)ccc23)cc1 | > 100 µM (inactive) | > 100 µM (inactive) | > 100 µM (inactive) | > 100 µM (inactive) | > 100 µM (inactive) | > 100 µM (inactive) | > 100 µM (inactive) | > 100 µM (inactive) | > 100 µM (inactive) | > 100 µM (inactive) | > 100 µM (inactive) | > 100 µM (inactive) | > 100 µM (inactive) | > 100 µM (inactive) | > 100 µM (inactive) | > 100 µM (inactive) | > 100 µM (inactive) | > 100 µM (inactive) | > 100 µM (inactive) | > 100 µM (inactive) |
| CNc1ccc2nc(-c3ccc(OC(=O)N(C)C)cc3)cn2c1 | 22.6 µM (inactive) | 24.3 µM (inactive) | 17.9 µM (inactive) | 19.2 µM (inactive) | 20.8 µM (inactive) | 15.5 µM (inactive) | 12.6 µM (inactive) | 13.7 µM (inactive) | 17 µM (inactive) | 18.8 µM (inactive) | 22.5 µM (inactive) | 45.8 µM (inactive) | 22.9 µM (inactive) | 15.7 µM (inactive) | 17.5 µM (inactive) | 14.5 µM (inactive) | 17.8 µM (inactive) | 17.5 µM (inactive) | 16.9 µM (inactive) | 17.7 µM (inactive) |
| c1ccc(C(c2cccc3c2ccc2ccccc23)C(c2ccccc2)c2cccc3c2ccc2ccccc23)cc1 (stereo not given) | > 100 µM (inactive) | > 100 µM (inactive) | > 100 µM (inactive) | > 100 µM (inactive) | > 100 µM (inactive) | > 100 µM (inactive) | > 100 µM (inactive) | > 100 µM (inactive) | > 100 µM (inactive) | > 100 µM (inactive) | 65.8 µM (inactive) | > 100 µM (inactive) | > 100 µM (inactive) | > 100 µM (inactive) | > 100 µM (inactive) | > 100 µM (inactive) | > 100 µM (inactive) | > 100 µM (inactive) | > 100 µM (inactive) | > 100 µM (inactive) |
| COc1ccc(C(=O)CCN(C)C)c2ccccc12 | 19.5 µM (inactive) | 28.2 µM (inactive) | > 38.3 µM (inactive) | 34.3 µM (inactive) | > 100 µM (inactive) | 18.2 µM (inactive) | 2.79 µM (inactive) | 5.21 µM (inactive) | 19.5 µM (inactive) | > 41.4 µM (inactive) | 15.6 µM (inactive) | 24.8 µM (inactive) | 55.6 µM (inactive) | 19.5 µM (inactive) | 24.3 µM (inactive) | 5.93 µM (inactive) | 17.9 µM (inactive) | 27.4 µM (inactive) | > 58.2 µM (inactive) | > 100 µM (inactive) |
| COCN1C(=O)[C@@H]2CCCN2C(=O)c2ccc(N)cc21 | > 100 µM (inactive) | > 100 µM (inactive) | > 100 µM (inactive) | > 100 µM (inactive) | > 100 µM (inactive) | > 100 µM (inactive) | > 100 µM (inactive) | > 100 µM (inactive) | > 100 µM (inactive) | > 100 µM (inactive) | > 100 µM (inactive) | > 100 µM (inactive) | > 100 µM (inactive) | > 100 µM (inactive) | > 100 µM (inactive) | > 100 µM (inactive) | > 100 µM (inactive) | > 100 µM (inactive) | > 100 µM (inactive) | > 100 µM (inactive) |
| COC1OC(COC(=O)c2cc(O)c(O)c(O)c2)C(OC(=O)c2cc(O)c(O)c(O)c2)C(OC(=O)c2cc(O)c(O)c(O)c2)C1OC(=O)c1cc(O)c(O)c(O)c1 (stereo not given) | 74 µM (inactive) | 69.5 µM (inactive) | > 100 µM (inactive) | 13.1 µM (inactive) | 4.48 µM (inactive) | 10.6 µM (inactive) | 12.8 µM (inactive) | 15 µM (inactive) | 12.9 µM (inactive) | 14.4 µM (inactive) | 18.4 µM (inactive) | > 100 µM (inactive) | 57.5 µM (inactive) | 27.2 µM (inactive) | 41.3 µM (inactive) | 13.3 µM (inactive) | 11.8 µM (inactive) | 1.77 µM (inactive) | 33 µM (inactive) | 34.9 µM (inactive) |
| CN(C)/C=N/S(=O)(=O)c1nn2c(C=O)c(-c3cc4ccccc4oc3=O)nc2s1 | 4.08 µM (inactive) | 5.56 µM (inactive) | 3.52 µM (inactive) | 7.83 µM (inactive) | 15.2 µM (inactive) | 8.09 µM (inactive) | 0.276 µM (active) | 1.16 µM (inactive) | 5.25 µM (inactive) | 7.28 µM (inactive) | 1.61 µM (inactive) | 2.38 µM (inactive) | 14.6 µM (inactive) | 3.72 µM (inactive) | 8.38 µM (inactive) | 1.92 µM (inactive) | 1.89 µM (inactive) | 22.3 µM (inactive) | 13 µM (inactive) | > 44.1 µM (inactive) |
| NC(CCCCNc1ccn(C2OC(CO)C(O)C2O)c(=O)n1)C(=O)O (stereo not given) | 53.7 µM (inactive) | > 100 µM (inactive) | > 100 µM (inactive) | 37.8 µM (inactive) | > 100 µM (inactive) | 97.1 µM (inactive) | 35 µM (inactive) | > 100 µM (inactive) | 88.1 µM (inactive) | > 100 µM (inactive) | > 100 µM (inactive) | > 100 µM (inactive) | > 100 µM (inactive) | 73.1 µM (inactive) | > 100 µM (inactive) | > 100 µM (inactive) | 73.3 µM (inactive) | > 100 µM (inactive) | 50.5 µM (inactive) | 30.6 µM (inactive) |
| CC(=O)OCC1OC(OC2CC3C(C)(C)C(OC(C)=O)CC[C@]3(C)C3CCC45CC4(CCC5[C@@H](C)C[C@H](O)C(O)C(C)(C)O)[C@]23C)C(O)C(O)C1O (stereo not given in full) | 9.44 µM (inactive) | > 10 µM (inactive) | > 10 µM (inactive) | > 10 µM (inactive) | > 10 µM (inactive) | > 10 µM (inactive) | > 10 µM (inactive) | > 10 µM (inactive) | > 10 µM (inactive) | > 10 µM (inactive) | 9.44 µM (inactive) | > 10 µM (inactive) | > 10 µM (inactive) | > 10 µM (inactive) | > 10 µM (inactive) | > 10 µM (inactive) | > 10 µM (inactive) | > 10 µM (inactive) | > 10 µM (inactive) | > 10 µM (inactive) |
| COc1ccc2oc(S(=O)(=O)N3CC(CCl)c4ccc(N)cc43)cc2c1 (stereo not given) | 8.79 µM (inactive) | 0.0767 µM (active) | 46.8 µM (inactive) | 0.0393 µM (active) | 0.0412 µM (active) | 0.0429 µM (active) | 0.0385 µM (active) | 0.0184 µM (active) | 0.0113 µM (active) | 0.0246 µM (active) | 0.022 µM (active) | 54.1 µM (inactive) | > 19.3 µM (inactive) | 0.152 µM (active) | 9.77 µM (inactive) | 0.0264 µM (active) | 0.0652 µM (active) | 1.48 µM (inactive) | 0.0662 µM (active) | 0.042 µM (active) |
